Results on one substance are retold here after US20210000953A1, “USE OF IMMUNE CHECKPOINT INHIBITORS IN CENTRAL NERVOUS SYSTEMS NEOPLASMS” (Bristol-Myers Squibb Company, priority 2014, published 2021).

Entries after “also recorded” stand apart in the source; their conditions may differ.

For data set [1], the system named is Tregs. As to the kind of experiment: Cytokine release from sorted Tregs (CD4+CD25+CD127−) ± stimulation. Type of data set: cell-based, human. The settings on record: GBM patients on nivolumab treatment. The protocol:
(§1) Analyses were performed on peripheral blood drawn from patients at predetermined time points (FIG. 13) and tumor tissue samples were obtained if resection was performed at the time of progression or suspected progression. Baseline and on-treatment samples were obtained from patients (n=20) randomized 1:1 to receive either nivolumab 3 mg/kg every 2 weeks (Q2W) or nivolumab 1 mg/kg+ipilimumab 3 mg/kg every 3 weeks followed by nivolumab 3 mg/kg Q2W (FIG. 13). Phenotypic, maturation, and proliferation analyses were performed using flow cytometry with population-specific antibody panels (Table 11). Cytokine release analyses were carried out on supernatants from sorted Tregs (CD4+CD25+CD127−)±stimulation (PMA+ionomycin). The anti-tumor-associated antigen (TAA) activity of peripheral blood mononuclear cells (PBMCs) and tumor-infiltrating lymphocytes (TILs) was evaluated. Cells were stimulated with interleukin (IL)-2, IL-15, and TAA peptides; after 9 days of culture with IL-2 and IL-15, cells were restimulated with IL-2, IL-15, and TAA peptides. Production of interferon (IFN)γ/granzyme B was assayed using a dual-color FluoroSpot assay.

For data set [2], the system named is subjects with recurrent GBM. As to the kind of experiment: Study CA209143 safety lead-in cohorts (Cohort 1, 1b): safety, tolerability and patient disposition. The data set is classed as in vivo, human. The protocol:
This is the first study examining monoclonal antibodies targeting immune checkpoint inhibitors in subjects with recurrent GBM. To ensure that nivolumab monotherapy and nivolumab in combination with ipilimumab are tolerable, safety lead-in cohorts (Cohort 1, 1b) evaluating the tolerability of two different treatment regimens were initiated prior to advancing a treatment arm into Cohort 2. Cohort 1 examined in a randomized fashion the safety and tolerability of nivolumab monotherapy dosed at 3 mg/kg every 2 weeks or nivolumab 1 mg/kg+ipilimumab 3 mg/kg every 3 weeks for four doses, then nivolumab 3 mg/kg every 2 weeks thereafter. Cohort 1b examined, in a non-randomized fashion, the safety and tolerability of nivolumab 3 mg/kg+ipilimumab 1 mg/kg every 3 weeks for four doses, then nivolumab 3 mg/kg every 2 weeks thereafter.
A randomized, open-label, multicenter, phase 3 study of nivolumab monotherapy versus bevacizumab and a safety study of nivolumab and nivolumab in combination with ipilimumab is conducted in adult (>18 years) subjects with a first recurrence of GBM after treatment with radiotherapy and temozolomide. Since the use of nivolumab and ipilimumab has not previously been studied in subjects with GBM, a safety lead-in (Cohort 1) consisting of approximately 10 subjects in each of two treatment arms are enrolled and randomized to treatment with either Arm N (nivolumab monotherapy) or Arm N+I (nivolumab combined with ipilimumab). Tolerability and safety of a treatment arm is determined after all subjects in the arm completed four doses or discontinued dosing prior to completing four doses. A safety evaluation of Cohort 1 is conducted for each arm based on criteria described herein.
Subjects will be evaluated for safety if they have received any study drug. […]
The causal relationship to study drug is determined by a physician and should be used to assess all adverse events (AE). […]
Tolerability and safety of a treatment arm was determined after all subjects per arm have completed four doses or discontinued dosing prior to completing four doses. […]

Data set [3] relates to TILs and PBMCs. As to the kind of experiment: Anti-tumor-associated antigen (TAA) activity, dual-color IFNγ/granzyme B FluoroSpot assay. Type of data set: cell-based, human. The settings on record: cells isolated from patients treated with nivolumab monotherapy (FIG. 17). On the procedure: as §1
The conditions of data set [4]: in vivo; cited from earlier work.
The test system of data set [5] is resected GBM tumor tissue. In words: Histopathology of tumor tissue resected at suspected progression. The data set is classed as in vivo, human. An excerpt: In those cases in which radiologic progression cannot be differentiated from pseudoprogression and it is the investigator's opinion that a surgical resection to obtain tumor tissue for histopathology is in the subject's best interests, a surgical resection may be performed following consultation with the BMS medical monitor. Tumor biopsy samples (blocks or slides) must be submitted for central review by a neuropathologist to minimize any inter-observer variation in the histopathologic assessment of progression versus treatment-related changes. If tumor pathology confirms progression, then the subject will be discontinued from study medication per protocol discontinuation criteria and the date of progression will be the day that it was first suspected. […] An MRI after the resection is required prior to treatment continuation. The subject will then continue all on-treatment tumor assessments as per the treatment schedule.
In those cases in which radiologic progression cannot be differentiated from pseudoprogression and the subject undergoes a biopsy or diagnostic surgical resection to obtain tumor tissue for histopathology analysis, representative tumor tissue samples will be reviewed locally and submitted for central review by a neuropathologist. If there is discordance between the central and local neuropathologic determination of progression versus treatment-associated changes (pseudoprogression), then a second central neuropathologic review will be performed and serve as the final adjudication of the histopathologic determination. Central review of histopathology will be blinded to the subject treatment arm assignment. Specific instructions will be provided to the investigative sites regarding the requirements for submission of tumor tissue for central neuropathologic review.

[6] abbreviates: case: nivolumab 3 mg/kg, after five treatments.

With nivolumab, the “Production of IFNγ by Tregs” value in data set [1] is given as “increase production of IFNγ”. Moreover, in data set [2] (Cohort 1, N = 10 per arm, same regimens, deaths in both arms were due to disease, cutoff Sep. 9, 2015), the “Patients in the study: Died” value is given as 7 (70) n (%). Besides, in data set [2] (Cohort 1, nivolumab 3 mg/kg monotherapy arm and nivolumab 1 mg/kg + ipilimumab 3 mg/kg combination arm, N = 10 each), the “Deaths due to drug toxicity” value is on record as “no deaths due to drug toxicity”. Also, the “Reason for not continuing on treatment: Disease Progression” value in data set [2] (Cohort 1, recurrent GBM, N = 10 per arm, nivolumab 3 mg/kg Q2W or nivolumab 1 mg/kg + ipilimumab 3 mg/kg Q3W x4 then nivolumab 3 mg/kg Q2W, cutoff Sep. 9, 2015) is reported as 9 (90) n (%). Moreover, the “Anti-TAA activity of TILs and PBMCs upon restimulation” value in data set [3] is “increased anti-TAA activity; also recorded: functional responses to TAAs in both TILs and PBMCs”. Besides, the Terminal half life entry in data set [4] is reported as “up to 25 days”. Also, the “Histopathology of the resected tumor” value in data set [5] (case: after five doses of nivolumab 3 mg/kg Q2W, suspected progression) is reported as “immune infiltration consistent with treatment-related changes; also recorded: consistent with significant treatment-related changes”. Also, in data set [5] (setting [6]), the “Pathology review of resection, occipital area” value was “viable tumor in samples from the occipital area with infiltrating T-lymphocytes”; the “Pathology review of resection, periventricular area” value was “only necrosis and fibrinous exudate (radiation necrosis) and large aggregates of lymphocytes with no tumor”.
